Reference: patent US6777442B2, “Diphenyl derivatives” (Bayer Aktiengesellschaft, priority 2001, dated 2004)

Assay: T3 promoter assay cell test (luciferase reporter)
Type: cell-based
Conditions: Homo sapiens; HepG2 cells, luciferase induction, costimulator retinoic acid, incubation 48 or 72 hours
Description: The activity of the compounds according to the invention can be examined, for example, in vitro by the known T3 promoter assay cell test, described below:
The test is carried out using a stabily transfected human HepG2 hepatocarcinoma cell which expresses a luciferase gene under the control of a thyroid-hormone-regulated promoter. The vector used for transfection carries, upstream of the luciferase gene, a minimal thymidine kinase promoter with a thyroid-hormone-responsive element (TRE) comprising two inverted palindromes of in each case 12 bp and one 8 bp spacer.
For the test, the cell cultures are sown in 96-well plates in Eagle's Minimal Essential Medium, with the following additives: glutamine, tricine, [N-(tris-hydroxymethyl)-methyl)glycine], sodium pyruvate, non-essential amino acids (L-Ala, L-Asn, L-Asp, L-Pro, L-Ser, L-Glu, Gly), insulin, selenium and transferrin. The cultures are grown at 37° C. in a 10% CO2 atmosphere for 48 hours. Serial dilutions of test substance or reference compound (T3, T4) and the costimulator retinoic acid are then added to the test cultures, which are then incubated as above for a further 48 or 72 hours. […] To determine the luciferase, induced by T3 or other substances, the cells are then lyzed by addition of a triton- and luciferin-containing buffer (from Promega) and immediately measured luminometrically. For each compound, the EC50 is calculated. […]

- EC50: 2 nM
Compound: Cc1cc(OCC(=O)O)cc(C)c1Cc1ccc(O)c(S(=O)(=O)c2ccc(F)cc2)c1 [Example 2, (4-{3-[(4-Fluorophenyl)sulphonyl]-4-hydroxybenzyl}-3,5-dimethylphenoxy)acetic acid]
